Laboratory results: PMC12865225 (Clinical and Translational Science, 2026)
Marks after values point to notes of the source that are not given here.

What was measured:
[1] = test system: T1, OAT1; test: OAT1 inhibition, fluorescein uptake into HEK293 cells; type: cell-based; settings: human, HEK293 cells transiently expressing OAT1, pH 7.4, probe fluorescein 5 µM; 200 μM inhibitor, 5 μM fluorescein; read-out: inhibition of fluorescein transport into OAT1-expressing cells
T1 construct: expressed in transfected cells; host or cells: HEK293 (recombinant baculovirus-mediated transduction)
Method: The human transporters OATP1B1, OATP1B3, OATP2B1, and OAT1‐OAT4 and a negative control protein (enhanced yellow fluorescent protein, eYFP) were transiently expressed in human embryonic kidney 293 (HEK293) cells by recombinant baculovirus‐mediated transduction. Baculoviruses carrying human genes for the transporters were prepared as reported previously. HEK293 cells were cultured in DMEM containing 10% fetal bovine serum at 37°C and 5% CO2 and passaged two to three times per week. For the transport studies, 0.05 × 10^6 cells for 48‐well plates (OATPs) or 0.06 × 10^6 cells for 24‐well plates (OATs) were seeded onto cell‐culture treated well plates coated with poly‐D‐lysine. […]
In the OATP inhibition assays, inhibitors in warm TP‐buffer were directly applied to cells after media removal, followed by a 30‐min preincubation step in the presence of inhibitors. […] OAT1 and OAT3 cells were lysed with 200 μL of 1 M sodium hydroxide for 10 min, and 150 μL of these samples were transferred to a black well plate for fluorescein quantification. […]
(§1) For the inhibition data analysis, the average of measured concentrations in the control cells was subtracted from the average of measured concentrations in transporter‐expressing cells for each inhibitor concentration and then normalized to the vehicle sample that represents 100% transport activity. […]

[2] = biological target: T2, BCRP (Homo sapiens, UniProt Q9UNQ0); test: BCRP inhibition, rosuvastatin transport in HEK293 membrane vesicles; type: biochemical; settings: R = I gut/IC50, FDA cut-off ≥ 10
T2 construct: made in house; host or cells: membrane vesicles from HEK293 cells expressing the transporter
T2 sequence (Q9UNQ0 1-655): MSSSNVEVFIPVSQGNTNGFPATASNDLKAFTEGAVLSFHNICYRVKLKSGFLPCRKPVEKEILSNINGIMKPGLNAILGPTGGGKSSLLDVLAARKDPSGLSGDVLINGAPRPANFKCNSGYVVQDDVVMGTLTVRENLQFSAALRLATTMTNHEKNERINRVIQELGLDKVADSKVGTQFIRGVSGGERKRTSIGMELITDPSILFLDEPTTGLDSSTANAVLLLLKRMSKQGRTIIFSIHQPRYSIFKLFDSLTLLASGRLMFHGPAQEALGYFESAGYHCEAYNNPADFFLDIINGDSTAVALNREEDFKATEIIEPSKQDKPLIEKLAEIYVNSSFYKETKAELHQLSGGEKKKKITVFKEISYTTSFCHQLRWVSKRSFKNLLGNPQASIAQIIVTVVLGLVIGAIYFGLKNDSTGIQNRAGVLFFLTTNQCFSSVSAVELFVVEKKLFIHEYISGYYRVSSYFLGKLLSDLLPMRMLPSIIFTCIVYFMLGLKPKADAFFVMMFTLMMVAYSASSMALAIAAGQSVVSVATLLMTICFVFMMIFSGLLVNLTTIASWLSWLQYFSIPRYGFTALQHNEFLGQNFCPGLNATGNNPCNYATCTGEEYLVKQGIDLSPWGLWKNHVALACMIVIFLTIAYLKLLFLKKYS
Method: Membrane vesicles, 5 μL (7.5 μg of total protein), prepared as previously reported, were aliquoted to wells of a conical‐shaped 96‐well plate. The plate was incubated for 10 min at +37°C before the initiation of transport by adding 25 μL of TS‐buffer (10 mM Tris, 250 mM sucrose, pH adjusted to 7.4 with HEPES) containing magnesium chloride (10 mM final in the reaction), adenosine triphosphate (ATP) or adenosine monophosphate (AMP), 4 mM final in the reaction, and the transporter substrate and inhibitor. Each experiment included triplicate samples for both ATP and AMP samples. The concentrations of rosuvastatin and N‐methyl‐quinidine were 1 μM in the BCRP and P‐gp vesicle inhibition assays, respectively. The transport reaction times were 1 and 2 min for BCRP and P‐gp, respectively. […] The transport reactions were quenched by adding 200 μL of cold TS‐buffer to each well and transferring the samples to a 96‐multiwell 1.0 μm glass fiber filter plate (Merck Millipore, Darmstadt, Germany) kept under vacuum. […]
as §1

| inhibition at 5 min, 200 μM [1] | Calculated R-value BCRP [2] | SMILES |
| --- | --- | --- |
| < 50% | 51 ^b | Cc1onc(-c2c(Cl)cccc2Cl)c1C(=O)N[C@@H]1C(=O)N2[C@@H]1SC(C)(C)[C@@H]2C(=O)O [Dicloxacillin] |
| < 50% | 23 ^b | Cc1onc(-c2c(F)cccc2Cl)c1C(=O)N[C@@H]1C(=O)N2[C@@H]1SC(C)(C)[C@@H]2C(=O)O [Flucloxacillin] |
